This is an account of results in US20220411782A1, “PHAGE COMPOSITIONS COMPRISING CRISPR-CAS SYSTEMS AND METHODS OF USE THEREOF” (priority 2019, published 2022).

The test deals with E. coli strain LFP 527. In words: Mouse UTI model, pooled CFU results of Examples 7 and 8 (Example 9). Particulars: for # samples <LOD / Mean log CFU/g: ciprofloxacin IV 5 mg/kg; for Delta from LR: ciprofloxacin IV compared with intravenous LR. In kind it is in vivo, Escherichia coli in mice (Mus musculus). As for the experimental part:
The crPhage cocktail was a mixture of phages p0033L-10 (ATCC No. PTA-126316), p004k-5 (ATCC No. PTA-126319), and p0071-16 (ATCC No. PTA-126320) at concentrations of 2×10^11 plaque forming units (PFU)/mL/phage (“high”), 2×10^9 PFU/mL/phage (“medium”), or 2×10^7 PFU/mL/phage (“low”). A 50 μl dose thus provided 1×10^10 PFU/phage (“high”), 1×10^8 PFU/phage (“medium”), or 1×10^6 PFU/phage (“low”). Lactated Ringer's (LR) solution served as a negative control and ciprofloxacin (Cipro) served as a positive control.
Female C3H/HeN mice were infected with E. coli strain LFP 527 via intraurethral (IU) instillation. Beginning 48 hours after infection, a test article of phage cocktail containing p0033L-10, p004k-5, and p0071-16 was administered at time zero and every 12 hours for 48 hours (for a total of 5 doses). Phage cocktail with a range of phage concentrations (Table 16) or vehicle was delivered either intravenously (IV) or by IU instillation into the bladder. The phage cocktails were prepared using LR.

Structures can show the parent of a compound that is named as a salt.

For `O=C(O)c1cn(C2CC2)c2cc(N3CCNCC3)c(F)cc2c1=O` [ciprofloxacin, Ciprofloxacin hydrochloride], the “# samples <LOD” value is, setting by setting: (Bladder, 54 hours) 0; (Bladder, 102 hours) 1; (Kidney, 54 hours) 0; (Kidney, 102 hours) 3. Further, the “Mean log CFU/g” value is recorded as 4.96 log CFU/g (Bladder, 54 hours); 3.16 log CFU/g (Bladder, 102 hours); 3.47 log CFU/g (Kidney, 54 hours); 2.03 log CFU/g (Kidney, 102 hours). In addition, the “Delta from LR” value (Bladder, 54 hours) was −1.55 (n.s.) log CFU/g; the “Delta from LR” value (Bladder, 102 hours) was −2.23 (p = 0.0033) log CFU/g; the “Delta from LR” value (Kidney, 54 hours) was −1.66 (n.s.) log CFU/g; the “Delta from LR” value (Kidney, 102 hours) is given as −3.11 (p <0.0001) log CFU/g.
